Marks after values point to notes of the source that are not given here. Peptide text beside a SMILES is read from it.
Experiments:
[1] = Competition binding assay to metal-charged NTA-coated plates (x2B b); conditions: for FITC-IM3 fluorescence with competitor: PBS on calcium = 100
Description: NTA-metal-affinity fluorescence assay was performed using 96-well NTA-metal-coated plates readily available from commercial sources such as Qiagen (Germantown, MD). NTA was charged with ferrous or ferric iron, zinc, copper, calcium, vanadium, ruthenium, cobalt, titanium, manganese or other metals. 400 ng of FITC-labeled immodulator peptide (or biotinylated immodulator peptide complexed to Alexa-488-labeled streptavidin) in PBS buffer was added per plate. After incubation at room temperature for 60 minutes, excess peptide was washed off and peptide was detected by measuring fluorescence (excitation 490 nm, emmission 525 nm) in a fluorometer. • (a) Using FITC-labeled IM3 peptide (1 ug/well) in the fluorescent binding assay: • EDTA-treated control: 2,251±1,186 • Ferrous iron: 170,441±11,264 (p<0.001)* • Copper: 13,644±5566 (p<0.05)* • Calcium: 48,822±11,990 (p<0.01)* • *p values are relative to EDTA-treated control • (b) Competition binding assay to ferrous iron, calcium, copper and zinc-charged NTA-coated plates using FITC-labeled IM3 peptide (0.5 uM) and 8× (4 uM) unlabelled competitor peptides IM3N1, IM3N2 (*all comparisons to PBS control are p<0.01); # fluorescent value of binding to […] was set at 100.

[2] = Iron-binding competition assay with labeled IM3AVD (x2E d); conditions: labeled IM3AVD plus 10x unlabeled peptide; no competing peptide = 100
Description: Experiments were conducted by the procedure described above. Ferric iron-charged NTA-coated 96-well plates were used as described. 1 ug/well immodulator peptide complexed to Alexa-488-labeled streptavidin in PBS buffer was added (60 min at room temperature). The plate was washed and counted in a standard fluorometer (excitation/emission: 485/525 nm). The results (fluorescence) show improved iron-binding by the three peptides extended C-terminally by the AVD, (dA)VD, and FVS tripeptides. **p<0.01 vs IM3 control IM3: 200±29; IM4: 45±37**; IM5: 130±77; IM3AVD: 434±29**; IM3dAVD: 418±28**; IM3FVS: 371±33** • (c) Competition assay. The same procedure was used as the preceding experiment, except that 375 ng/well labeled IM3 peptide was used, plus 10× of the indicated unlabeled peptide. ‘No competing peptide’ control value was set to 100. *p<0.05 vs “no peptide” control Competing Peptide/Fluorescence • None: 100±38; IM4: 125±26; IM3: 63±27*; IM5: 40±14*; IM3AVD: 10±28* • (d) Competition assay. The same procedure was used as the preceding experiment, except that labeled IM3AVD peptide was used. **p<0.01 vs “no competing peptide” control • None: 100±9; IM4: 144±44; IM3: 35±16**; IM5: 30±19**; IM3AVD: 9±19** • (e) The same procedure was used as the preceding experiment, except that each peptide was labeled with Alexa-488-labeled streptavidin in PBS buffer and used separately. Binding to IM3 was set to =100. *p<0.05, **p<0.01 vs IM3 control. (Labeled Peptide/Fluorescence) IM1: 1.8±0.4**; IM2: 3.0±1.8**; IM3: 100.0±16.8; IM4: 7.2±1.7*; IM5: 86.7±6.4; IM6: 85.9±14.9; IM3AVD:137.7±11.8*; IM3dAVD:147.4±22.9*; IM3FVS: 101.5±10.5.

[3] = biological target: T1, DNA-binding domain (DBD) of RXR-alpha (Homo sapiens, UniProt P19793); test: Binding to RXRa-DBD with or without ferric iron (x3B)
T1 construct: purchased Abcam, Cambridge, MA
T1 sequence (P19793 111-228): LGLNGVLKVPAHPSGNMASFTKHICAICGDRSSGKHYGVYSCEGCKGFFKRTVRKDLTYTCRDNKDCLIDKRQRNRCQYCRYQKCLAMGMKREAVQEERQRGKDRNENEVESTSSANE
Description: Experiment x3B. Binding of immodulator peptides to DNA-binding domain (DBD) of RXR-alpha, with or without ferric iron. 100 ng/well recombinant RXRa-DBD (Abcam, Cambridge, MA) was adsorbed to wells of a 96-well plate for 60 minutes at RT, then blocked with 200 uL 1% BSA in PBS buffer overnight. Plate was washed and 800 ng/well Streptavidin-Alexa 488 conjugate (SA488)-labelled IM peptide was added, with or without ferric chloride (5 uM) or 5-fold excess RXRa-DBD. The plate was incubated for 2 hours at room temperature, washed and counted in a standard fluorometer (excitation/emission 485/525 nm).

[4] = biological target: T2, full-length huNur77 (Homo sapiens, UniProt P22736); test: Binding to full-length huNur77 (x3C); conditions: 333 ng/well labelled peptide
T2 construct: purchased Abcam, Cambridge, MA
Description: 400 ng/well recombinant Nur77 (Abcam, Cambridge, MA) was adsorbed to wells of a 96-well plate for 90 minutes at RT, then blocked with 200 uL 1% BSA in PBS buffer overnight. Plate was washed and 333 ng/well Streptavidin-Alexa 488 conjugate (SA488)-labelled IM3, IM4 or no peptide was added. The plate was incubated for 60 min at room temperature, washed and counted in a standard fluorometer (excitation/emission 485/525 nm). Background (buffer alone) was subtracted.

[5] = FITC-PI(4,5)P2 binding at pH5.2 with metals and cold PPI (x9D)
Description: To a streptavidin-coated 96-well plate, 400 ng peptide IM3 or IM5 were bound per well. Each well received 100 uL of sodium acetate buffer pH5.2 containing 500 uM EDTA, Calcium Chloride, Zinc Chloride or Ferric Chloride. Each well additionally contained 50 ng FITC-PI(4,5)P2 plus 2 ug of either cold PI(3,4)P2, PI(4,5)P2, PI(3,5)P2 or buffer. All assays were done in sextuplicate. After incubation at room temperature for 60 mins, wells were washed and counted in a fluorometer set at FITC excitation/emmission wavelengths.

[6] = 100 ng/well RXRa-DBD, no FeCl3, no excess RXRa-DBD

T2 sequence (P22736 whole entry): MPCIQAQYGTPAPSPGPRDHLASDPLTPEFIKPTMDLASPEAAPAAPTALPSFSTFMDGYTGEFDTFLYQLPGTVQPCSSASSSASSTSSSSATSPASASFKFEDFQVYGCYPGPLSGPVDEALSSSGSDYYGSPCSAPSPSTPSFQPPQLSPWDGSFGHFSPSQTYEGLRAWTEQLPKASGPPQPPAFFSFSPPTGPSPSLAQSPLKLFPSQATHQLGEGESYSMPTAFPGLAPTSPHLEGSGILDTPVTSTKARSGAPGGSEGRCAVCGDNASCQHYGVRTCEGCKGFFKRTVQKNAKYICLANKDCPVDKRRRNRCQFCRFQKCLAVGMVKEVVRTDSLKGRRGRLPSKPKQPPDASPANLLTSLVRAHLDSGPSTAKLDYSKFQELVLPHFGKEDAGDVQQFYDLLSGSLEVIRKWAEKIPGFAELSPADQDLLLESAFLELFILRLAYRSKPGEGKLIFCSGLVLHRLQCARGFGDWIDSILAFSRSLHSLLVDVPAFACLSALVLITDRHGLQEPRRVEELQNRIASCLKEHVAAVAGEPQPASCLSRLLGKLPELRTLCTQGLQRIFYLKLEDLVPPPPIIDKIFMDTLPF

Compound	fluorescence of labeled IM3AVD with competing peptide [2]	fluorescence [3, 6]	fluorescence ([3]; FeCl3 5 uM, 5X excess RXRa-DBD)	fluorescence ([3]; FeCl3 5 uM, no excess RXRa-DBD)	fluorescence ([4]; Nur77 400 ng/well)	fluorescence ([4]; no Nur77 adsorbed)	fluorescence, FITC-PI(4,5)P2 bound ([5]; Buffer, Calcium)	fluorescence, FITC-PI(4,5)P2 bound ([5]; Buffer, EDTA)	fluorescence, FITC-PI(4,5)P2 bound ([5]; Buffer, Ferric Iron)	fluorescence, FITC-PI(4,5)P2 bound ([5]; Buffer, Zinc)	fluorescence, FITC-PI(4,5)P2 bound ([5]; Cold PI(3,4)P2, Calcium)	fluorescence, FITC-PI(4,5)P2 bound ([5]; Cold PI(3,4)P2, EDTA)	fluorescence, FITC-PI(4,5)P2 bound ([5]; Cold PI(3,4)P2, Ferric Iron)	fluorescence, FITC-PI(4,5)P2 bound ([5]; Cold PI(3,4)P2, Zinc)	fluorescence, FITC-PI(4,5)P2 bound ([5]; Cold PI(3,5)P2, Calcium)	fluorescence, FITC-PI(4,5)P2 bound ([5]; Cold PI(3,5)P2, EDTA)	fluorescence, FITC-PI(4,5)P2 bound ([5]; Cold PI(3,5)P2, Ferric Iron)	fluorescence, FITC-PI(4,5)P2 bound ([5]; Cold PI(3,5)P2, Zinc)	fluorescence, FITC-PI(4,5)P2 bound ([5]; Cold PI(4,5)P2, Calcium)	fluorescence, FITC-PI(4,5)P2 bound ([5]; Cold PI(4,5)P2, EDTA)	other results
N=C(N)NCCC[C@H](NC(=O)CNC(=O)[C@H](CCCCN)NC(=O)[C@H](CO)NC(=O)[C@@H]1CCCN1C(=O)[C@H](CCCNC(=N)N)NC(=O)[C@H](CS)NC(=O)[C@H](CCC(N)=O)NC(=O)[C@H](CCCCN)NC(=O)[C@H](CCCCN)NC(=O)[C@H](CCCCN)NC(=O)[C@H](Cc1ccc(O)cc1)NC(=O)[C@H](Cc1ccccc1)NC(=O)CNC(=O)[C@H](CCCCN)NC(=O)[C@@H](N)CCCCN)C(=O)N[C@@H](CCCCN)C(=O)N[C@@H](CCCNC(=N)N)C(=O)NCC(=O)N[C@@H](Cc1ccccc1)C(=O)N[C@@H](CS)C(=O)N[C@@H](Cc1c[nH]c2ccccc12)C(=O)O [IM3] (H-KKGFYKKKQCRPSKGRKRGFCW-OH; N-terminus and C-terminus assumed)	35±16	687.3 ± 55.4	837.0 ± 30.5	1161.3 ± 78.5	488 ± 38	59 ± 17	142 ± 29	30 ± 22	772 ± 168	138 ± 388	48 ± 61	26 ± 25	2,162 ± 269	65 ± 16	88 ± 22	63 ± 26	2,036 ± 303	118 ± 43	32 ± 23	10 ± 16	FITC-IM3 fluorescence, no competitor (PBS) ([1]; Calcium, set at 100): 100.0 ± 1.9; FITC-IM3 fluorescence, no competitor (PBS) ([1]; Copper, calcium = 100): 53.0 ± 0.6; FITC-IM3 fluorescence, no competitor (PBS) ([1]; Ferrous iron, calcium = 100): 85.6 ± 5.8; FITC-IM3 fluorescence, no competitor (PBS) ([1]; Zinc, calcium = 100): 85.9 ± 5.5; fluorescence, FITC-PI(4,5)P2 bound ([5]; Cold PI(4,5)P2, Ferric Iron): 1,464 ± 320; fluorescence, FITC-PI(4,5)P2 bound ([5]; Cold PI(4,5)P2, Zinc): 21 ± 22
CC(C)C[C@H](NC(=O)[C@H](C)NC(=O)[C@@H]1CCCN1C(=O)[C@H](Cc1c[nH]cn1)NC(=O)[C@H](CS)NC(=O)[C@H](CCC(N)=O)NC(=O)[C@H](CCCCN)NC(=O)[C@@H]1CCCN1C(=O)[C@H](Cc1c[nH]cn1)NC(=O)[C@H](Cc1ccccc1)NC(=O)[C@H](CC(N)=O)NC(=O)CNC(=O)[C@H](CC(N)=O)NC(=O)[C@@H](N)CCCNC(=N)N)C(=O)N[C@@H](CC(=O)O)C(=O)NCC(=O)N[C@@H](CCC(N)=O)C(=O)N[C@@H](CCCNC(=N)N)C(=O)NCC(=O)N[C@@H](CCCCN)C(=O)N[C@@H](CS)C(=O)N[C@@H](Cc1c[nH]c2ccccc12)C(=O)O [IM4] (H-RNGNFHPKQCHPALDGQRGKCW-OH; N-terminus and C-terminus assumed)	144±44	–	–	–	70 ± 48	112 ± 24	–	–	–	–	–	–	–	–	–	–	–	–	–	–	–
CC[C@H](C)[C@H](NC(=O)CNC(=O)[C@H](CCCNC(=N)N)NC(=O)[C@H](CCCCN)NC(=O)[C@H](CCCNC(=N)N)NC(=O)CNC(=O)[C@H](CCCNC(=N)N)NC(=O)[C@H](CO)NC(=O)[C@@H]1CCCN1C(=O)[C@H](CCCCN)NC(=O)[C@H](CS)NC(=O)[C@H](CCC(N)=O)NC(=O)[C@H](CCCCN)NC(=O)[C@H](CCCNC(=N)N)NC(=O)[C@H](CCCCN)NC(=O)[C@H](Cc1ccc(O)cc1)NC(=O)[C@H](Cc1ccccc1)NC(=O)CNC(=O)[C@H](CCCCN)NC(=O)[C@@H](N)CCCNC(=N)N)C(=O)N[C@@H](CS)C(=O)N[C@@H](Cc1c[nH]c2ccccc12)C(=O)O [IM5] (H-RKGFYKRKQCKPSRGRKRGICW-OH; N-terminus and C-terminus assumed)	30±19	228.0 ± 44.9	303.0 ± 68.3	552.7 ± 86.8^	–	–	234 ± 34	88 ± 23	1,111 ± 167	236 ± 55	205 ± 50	150 ± 81	2,150 ± 420	151 ± 51	489 ± 146	205 ± 71	2,026 ± 176	353 ± 29	163 ± 80	81 ± 95	fluorescence, FITC-PI(4,5)P2 bound ([5]; Cold PI(4,5)P2, Ferric Iron): 1,447 ± 304; fluorescence, FITC-PI(4,5)P2 bound ([5]; Cold PI(4,5)P2, Zinc): 104 ± 21
RGVTEDYLRLETLVQKVVSKGFYKKKQCRPSKGRKRGFCW [IM3N1]	–	–	–	–	–	–	–	–	–	–	–	–	–	–	–	–	–	–	–	–	FITC-IM3 fluorescence with competitor ([1]; Calcium, 0.5 uM FITC-IM3, 8x (4 uM) unlabelled competitor): 14.6 ± 1.4*; FITC-IM3 fluorescence with competitor ([1]; Copper, 8x (4 uM) unlabelled competitor): 9.2 ± 1.5*; FITC-IM3 fluorescence with competitor ([1]; Ferrous iron, 8x (4 uM) unlabelled competitor): 20.4 ± 1.0*; FITC-IM3 fluorescence with competitor ([1]; Zinc, 8x (4 uM) unlabelled competitor): 15.7 ± 1.3*
